# Results as given in PubChem BioAssay AID1963437 (Molecular Pharmacology Branch, DTP, NCI, 2024).
# Test system: OVCAR-8 complex spheroid, growth inhibition
# Test: Anticancer human tumor OVCAR-8 cell line growth inhibition [Asc];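 further: spheroids exposed to agents for 7 days before readout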;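 on viability, T/C: percent viability relative to DMSO vehicle wells taken as 100%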
# Conditions: for IC50: curve of first compound; for viability, T/C: stronger effect = lower value
# Outline: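 Stromal components (HUVEC and hMSC) are co-assembled with the cancer cells into multicellular spheroids. Drugs are then added singly or paired, at concentrations falling by half-log increments from a clinically achievable maximum, capped at 10 microM without known Cmax.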
# [1] = second compound 0.00949 µM, first compound 0.00316 µM
# [2] = second compound 0.00949 µM, first compound 0.01 µM
# [3] = second compound 0.00949 µM, first compound 0.0316 µM
# [4] = second compound 0.00949 µM, first compound 0.1 µM
# [5] = second compound 0.03 µM, first compound 0.00316 µM
# [6] = second compound 0.03 µM, first compound 0.01 µM
# [7] = second compound 0.03 µM, first compound 0.0316 µM
# [8] = second compound 0.03 µM, first compound 0.1 µM
# [9] = second compound 0.0949 µM, first compound 0.00316 µM
# [10] = second compound 0.0949 µM, first compound 0.01 µM
# [11] = second compound 0.0949 µM, first compound 0.0316 µM
# [12] = second compound 0.0949 µM, first compound 0.1 µM
# [13] = second compound 0.3 µM, first compound 0.00316 µM
# [14] = second compound 0.3 µM, first compound 0.01 µM
# [15] = second compound 0.3 µM, first compound 0.0316 µM
# [16] = second compound 0.3 µM, first compound 0.1 µM
# [17] = second compound 0.949 µM, first compound 0.00316 µM
# [18] = second compound 0.949 µM, first compound 0.01 µM
# [19] = second compound 0.949 µM, first compound 0.0316 µM
# [20] = second compound 0.949 µM, first compound 0.1 µM
# [21] = second compound 3 µM, first compound 0.00316 µM
# [22] = second compound 3 µM, first compound 0.01 µM
# [23] = second compound 3 µM, first compound 0.0316 µM
# [24] = second compound 3 µM, first compound 0.1 µM
smiles,measurement,setting,value
COc1c(OCCCN2CCOCC2)ccc2c3n(c(=NC(=O)c4cnc(N)nc4)nc12)CCN3 + CCN1C(C(=O)NC23CCC(C(=O)O)(CC2)CC3)C(c2cccc(Cl)c2F)C2(C(=O)Nc3cc(Cl)ccc32)C12CCCCC2,IC50,second compound 0.00949 µM,> 1000 nM
same,IC50,second compound 0.03 µM,> 1000 nM
same,IC50,second compound 0.0949 µM,> 1000 nM
same,IC50,second compound 0.3 µM,> 1000 nM
same,IC50,second compound 0.949 µM,> 1000 nM
same,IC50,second compound 3 µM,> 1000 nM
same,"viability, T/C",[1],94.7%
same,"viability, T/C",[2],92.2%
same,"viability, T/C",[3],113%
same,"viability, T/C",[4],170%
same,"viability, T/C","second compound 0.00949 µM, first compound 0.316 µM",140%
same,"viability, T/C","second compound 0.00949 µM, first compound 1 µM",97.1%
same,"viability, T/C",[5],81.5%
same,"viability, T/C",[6],101%
same,"viability, T/C",[7],121%
same,"viability, T/C",[8],134%
same,"viability, T/C","second compound 0.03 µM, first compound 0.316 µM",133%
same,"viability, T/C","second compound 0.03 µM, first compound 1 µM",91.2%
same,"viability, T/C",[9],104%
same,"viability, T/C",[10],99%
same,"viability, T/C",[11],117%
same,"viability, T/C",[12],165%
same,"viability, T/C","second compound 0.0949 µM, first compound 0.316 µM",154%
same,"viability, T/C","second compound 0.0949 µM, first compound 1 µM",92.4%
same,"viability, T/C",[13],103%
same,"viability, T/C",[14],103%
same,"viability, T/C",[15],108%
same,"viability, T/C",[16],153%
same,"viability, T/C","second compound 0.3 µM, first compound 0.316 µM",133%
same,"viability, T/C","second compound 0.3 µM, first compound 1 µM",80%
same,"viability, T/C",[17],93.9%
same,"viability, T/C",[18],89.8%
same,"viability, T/C",[19],146%
same,"viability, T/C",[20],172%
same,"viability, T/C","second compound 0.949 µM, first compound 0.316 µM",144%
same,"viability, T/C","second compound 0.949 µM, first compound 1 µM",80.9%
same,"viability, T/C",[21],111%
same,"viability, T/C",[22],115%
same,"viability, T/C",[23],133%
same,"viability, T/C",[24],153%
same,"viability, T/C","second compound 3 µM, first compound 0.316 µM",126%
same,"viability, T/C","second compound 3 µM, first compound 1 µM",90.2%
NC(=O)C(=Cn1cnc(-c2cc(C(F)(F)F)cc(C(F)(F)F)c2)n1)c1cncnc1 + CCN1C(C(=O)NC23CCC(C(=O)O)(CC2)CC3)C(c2cccc(Cl)c2F)C2(C(=O)Nc3cc(Cl)ccc32)C12CCCCC2,IC50,second compound 0.00949 µM,> 300 nM
same,IC50,second compound 0.03 µM,> 300 nM
same,IC50,second compound 0.0949 µM,> 300 nM
same,IC50,second compound 0.3 µM,> 300 nM
same,IC50,second compound 0.949 µM,> 300 nM
same,IC50,second compound 3 µM,> 300 nM
same,"viability, T/C","second compound 0.00949 µM, first compound 0.000949 µM",98.7%
same,"viability, T/C","second compound 0.00949 µM, first compound 0.003 µM",100%
same,"viability, T/C","second compound 0.00949 µM, first compound 0.00949 µM",106%
same,"viability, T/C","second compound 0.00949 µM, first compound 0.03 µM",102%
same,"viability, T/C","second compound 0.00949 µM, first compound 0.0949 µM",81.8%
same,"viability, T/C","second compound 0.00949 µM, first compound 0.3 µM",66.3%
same,"viability, T/C","second compound 0.03 µM, first compound 0.000949 µM",96.5%
same,"viability, T/C","second compound 0.03 µM, first compound 0.003 µM",90.1%
same,"viability, T/C","second compound 0.03 µM, first compound 0.00949 µM",111%
same,"viability, T/C","second compound 0.03 µM, first compound 0.03 µM",89.5%
same,"viability, T/C","second compound 0.03 µM, first compound 0.0949 µM",82.5%
same,"viability, T/C","second compound 0.03 µM, first compound 0.3 µM",66.9%
same,"viability, T/C","second compound 0.0949 µM, first compound 0.000949 µM",88.9%
same,"viability, T/C","second compound 0.0949 µM, first compound 0.003 µM",102%
same,"viability, T/C","second compound 0.0949 µM, first compound 0.00949 µM",102%
same,"viability, T/C","second compound 0.0949 µM, first compound 0.03 µM",105%
same,"viability, T/C","second compound 0.0949 µM, first compound 0.0949 µM",80.3%
same,"viability, T/C","second compound 0.0949 µM, first compound 0.3 µM",65.9%
same,"viability, T/C","second compound 0.3 µM, first compound 0.000949 µM",93.2%
same,"viability, T/C","second compound 0.3 µM, first compound 0.003 µM",85.1%
same,"viability, T/C","second compound 0.3 µM, first compound 0.00949 µM",94%
same,"viability, T/C","second compound 0.3 µM, first compound 0.03 µM",101%
same,"viability, T/C","second compound 0.3 µM, first compound 0.0949 µM",81%
same,"viability, T/C","second compound 0.3 µM, first compound 0.3 µM",68.7%
same,"viability, T/C","second compound 0.949 µM, first compound 0.000949 µM",88.1%
same,"viability, T/C","second compound 0.949 µM, first compound 0.003 µM",103%
same,"viability, T/C","second compound 0.949 µM, first compound 0.00949 µM",102%
same,"viability, T/C","second compound 0.949 µM, first compound 0.03 µM",122%
same,"viability, T/C","second compound 0.949 µM, first compound 0.0949 µM",73.4%
same,"viability, T/C","second compound 0.949 µM, first compound 0.3 µM",60%
same,"viability, T/C","second compound 3 µM, first compound 0.000949 µM",116%
same,"viability, T/C","second compound 3 µM, first compound 0.003 µM",109%
same,"viability, T/C","second compound 3 µM, first compound 0.00949 µM",112%
same,"viability, T/C","second compound 3 µM, first compound 0.03 µM",115%
same,"viability, T/C","second compound 3 µM, first compound 0.0949 µM",80.5%
same,"viability, T/C","second compound 3 µM, first compound 0.3 µM",59.8%
NC1CCC(NC2CC2c2ccccc2)CC1 (stereo unspecified) + CCN1C(C(=O)NC23CCC(C(=O)O)(CC2)CC3)C(c2cccc(Cl)c2F)C2(C(=O)Nc3cc(Cl)ccc32)C12CCCCC2,IC50,second compound 0.00949 µM,> 100 nM
same,IC50,second compound 0.03 µM,> 100 nM
same,IC50,second compound 0.0949 µM,> 100 nM
same,IC50,second compound 0.3 µM,> 100 nM
same,IC50,second compound 0.949 µM,> 100 nM
same,IC50,second compound 3 µM,> 100 nM
same,"viability, T/C","second compound 0.00949 µM, first compound 0.000316 µM",81.2%
same,"viability, T/C","second compound 0.00949 µM, first compound 0.001 µM",113%
same,"viability, T/C",[1],91.4%
same,"viability, T/C",[2],109%
same,"viability, T/C",[3],84.8%
same,"viability, T/C",[4],90.7%
same,"viability, T/C","second compound 0.03 µM, first compound 0.000316 µM",93.7%
same,"viability, T/C","second compound 0.03 µM, first compound 0.001 µM",90.2%
same,"viability, T/C",[5],96.5%
same,"viability, T/C",[6],93.8%
same,"viability, T/C",[7],98.5%
same,"viability, T/C",[8],101%
same,"viability, T/C","second compound 0.0949 µM, first compound 0.000316 µM",95.4%
same,"viability, T/C","second compound 0.0949 µM, first compound 0.001 µM",99.5%
same,"viability, T/C",[9],90.2%
same,"viability, T/C",[10],96.5%
same,"viability, T/C",[11],98.5%
same,"viability, T/C",[12],90.3%
same,"viability, T/C","second compound 0.3 µM, first compound 0.000316 µM",98.9%
same,"viability, T/C","second compound 0.3 µM, first compound 0.001 µM",108%
same,"viability, T/C",[13],109%
same,"viability, T/C",[14],110%
same,"viability, T/C",[15],91.1%
same,"viability, T/C",[16],103%
same,"viability, T/C","second compound 0.949 µM, first compound 0.000316 µM",89.2%
same,"viability, T/C","second compound 0.949 µM, first compound 0.001 µM",109%
same,"viability, T/C",[17],88%
same,"viability, T/C",[18],105%
same,"viability, T/C",[19],106%
same,"viability, T/C",[20],97.4%
same,"viability, T/C","second compound 3 µM, first compound 0.000316 µM",113%
same,"viability, T/C","second compound 3 µM, first compound 0.001 µM",98.2%
same,"viability, T/C",[21],107%
same,"viability, T/C",[22],110%
same,"viability, T/C",[23],119%
same,"viability, T/C",[24],109%
